Structures are written as SMILES.

Regarding `CCOc1ccc(OCC)c(N)c1`, the melting point was 85 °C.

Turning to `Clc1ccc(C=NC2Nc3ccccc3N2)cc1`, the melting point is 155 °C.

As for `CC(C)(OC1CCCCC1)C(=O)O`, the melting point came out at 75 °C.

The compound `Cc1c(C=NO)c(=O)n(-c2ccccc2)n1C` came in with a melting point of 216 to 219 °C.

For `CC(C)(C)OC(=O)N[C@H](CC#N)Cc1ccccc1`, the melting point lay within 120 to 125 °C.

For `CCCCCC(N)P(=O)(O)O` (stereo unspecified), the melting point lay in the range of 265 to 268 °C.

For `Cc1ccc(-c2ccc3c(c2)C=CC(=C2C(=O)c4ccccc4C2=O)N3)cc1`, the melting point lay in the range of 241 to 242 °C.

`CCCCOc1cc(C(=O)O)ccc1OC`: the melting point lay within 142 to 144 °C.

Compound `COC(=O)c1c(N)sc2c1CCCC2` registered a melting point of 128 °C.

Regarding `O=C1OC(=O)C2CCCCC12` (stereo unspecified), the melting point worked out at 32 °C.

On to `Cc1ccccc1[N+](=O)[O-]`, for which the melting point is -4 °C.

In turn, `Cc1onc(-c2c(Cl)cccc2Cl)c1C(=O)NN` returned a melting point of 150 to 152 °C.

In turn, `C[C@H](O)C(=O)O` came in with a melting point of 53 °C.

Turning to `CC12CCC(C(O)=C/C1=N\Nc1ccccc1)C2(C)C` (stereo unspecified), the melting point was 188 °C.

The compound `NC(=O)C1CCCNC1` (stereo unspecified) came in with a melting point of 102 to 108 °C.

`Cc1coc2ccccc2c1=O` returned a melting point of 68 °C.

`Cc1c(C)c2c(c(C)c1O)CCC(C)(COc1ccc(CC3SC(=O)NC3=O)cc1)O2` (stereo unspecified) returned a melting point of 185 °C.

Compound `COc1ccc([C@@H](O)[C@@H](CO)Oc2c(OC)cccc2OC)cc1OC` yielded a melting point of 111 °C.

On to `CCOc1ccc(C(=O)OCCN(CC)CC)cc1`, for which the melting point amounted to 173 °C.

In turn, `c1coc(CSCc2ccco2)c1` had a melting point of 31 °C.

As for `COc1ccc2c(c1)CC1(CCC(O)(c3ccc(C(C)(C)C)cc3)CC1)C2O` (stereo unspecified), the melting point lay in the range of 102 to 106 °C.

The compound `O=[N+]([O-])c1ccc(S)cc1` displayed a melting point of 74 to 77 °C.

Compound `Cc1ccc(C(=O)O)c(C(=O)O)c1` showed a melting point of 146 to 149 °C.

The compound `CCN(Cc1ccccc1)c1ccccc1` gave a melting point of 35 °C.

As for `O=C(O)c1c(Cl)cccc1[N+](=O)[O-]`, the melting point turned out to be 164 °C.

Consider `COc1cc([N+](=O)[O-])c(OC)cc1N`, for which the melting point fell in the range of 153 to 157 °C.

`Cc1ccc(-c2ccc(/C=C3\C=C(CC(C)C)OC3=O)o2)cc1` had a melting point of 78 °C.

`C1=CC2=CC=Cc3c(c(c4cccc5cccc3c54)=C1)C2` displayed a melting point of 171 °C.

With `CC(=O)c1sc(-c2ccc(Cl)cc2)cc1N`, the melting point fell in the range of 138 to 140 °C.

`Brc1ccc2nonc2c1` gave a melting point of 72 to 74 °C.

Turning to `Clc1cncc(Cl)c1N1CCNCC1`, the melting point was 77 to 80 °C.

Compound `Cc1nc(-c2ccc(-c3ccccc3)cc2)cs1` displayed a melting point of 113 to 118 °C.

In the case of `CSc1nc(N)cc(N)n1`, the melting point lay in the range of 189 to 193 °C.

The compound `O=Cc1cccc(NS(=O)(=O)c2ccccc2)c1` yielded a melting point of 104 to 108 °C.

Regarding `CS(=O)(=O)c1ccc(C=O)cc1`, the melting point was 155 to 161 °C.

Regarding `COc1ccc(C=C2SC(=NN=CC(C)C)NC2=O)cc1`, the melting point lay within 258 to 260 °C.

For `CS(=O)(=O)c1nc(Br)c(C#N)c(-c2ccc(Cl)cc2)c1Cl`, the melting point was 158 °C.

The compound `O=C1CCCCCCCCC1=O` showed a melting point of 40.5 °C.

For the compound `CCN(CC)c1nc(Cl)nc(N(CC)CC)n1`, the melting point was determined as 27 °C.

In the case of `CCc1cc(CC)cc(CC)c1`, the melting point is -66.5 °C.

Turning to `c1ccc2c(c1)cc1ccc3cccc4c5ccccc5c2c1c34`, the melting point was found to be 162 °C.

The compound `O=C1OC(c2ccccc2)=NC1=Cc1ccccc1` showed a melting point of 167 °C.

Regarding `O=[N+]([O-])c1cc(C=NO)ccc1C=NO`, the melting point lay in the range of 175 to 176 °C.

The compound `O=C(O)C(Br)c1ccccc1Cl` (stereo unspecified) gave a melting point of 107 °C.

For `O=C(O)[C@H]1CCCCN1C(=O)OCC1c2ccccc2-c2ccccc21`, the melting point lay within 149 to 153 °C.

Compound `CN(C)C(C)(C)CO` returned a melting point of 19 °C.

Regarding `Cc1oncc1C(=O)O`, the melting point amounted to 147 °C.

`CC1(C)N=C(c2ccccc2)C=[N+]1[O-]` showed a melting point of 108 to 111 °C.

On to `O=C1C=C(Nc2ccccc2)CCC1`, for which the melting point lay in the range of 178 to 182 °C.

Take `CO[C@]1(CBr)O[C@H](COC(=O)c2ccc(C)cc2)[C@@H](OC(=O)c2ccc(C)cc2)[C@@H]1OC(=O)c1ccc(C)cc1`: the melting point lay within 148 to 149 °C.

In turn, `O=C(C=Nc1ccccc1)c1cc(C(=O)C=Nc2ccccc2)cc(C(=O)C=Nc2ccccc2)c1` gave a melting point of 340 °C.

As to `CCOC(=O)C=C(C)OCC`, the melting point was 30 °C.

`O=C(O)C#Cc1cccc(C#CC(=O)O)c1` had a melting point of 209 °C.

Consider `COC(=O)c1cc(S(=O)(=O)Cl)oc1C`, for which the melting point was 35 to 38 °C.

Turning to `O=C=NC12CC3CC(CC(C3)C1)C2`, the melting point fell in the range of 144 to 146 °C.

As for `COC(=O)[C@@H](C)Oc1ccc(O)cc1`, the melting point lay within 64 to 67 °C.

Compound `C=CN1CCCCCC1=O` registered a melting point of 34 °C.

`Nc1nc(=O)c2[nH]nnc2[nH]1` displayed a melting point of 300 °C.

As to `CCOc1ccc(NC(=O)CC(C)O)cc1` (stereo unspecified), the melting point was 160 °C.

As for `COC(=O)C1(S(=O)(=O)c2ccccc2)CCCCC1`, the melting point was 114 °C.

`Cc1cc(O)nc(C(C)C)n1` showed a melting point of 173 °C.

Take `CC1(C)C(=O)Nc2ccccc21`: the melting point stood at 154 °C.

In turn, `NS(=O)(=O)c1ccccc1OC(F)(F)F` yielded a melting point of 188 °C.

Compound `CC#CCCCCC` had a melting point of -61.6 °C.

The compound `NC(=O)c1ccc(C(=O)O)cc1` gave a melting point of 300 °C.

With `CC1(C)OC(=O)C(=Cc2ccc(-c3ccc(Cl)cc3)o2)C(=O)O1`, the melting point turned out to be 109 °C.

For the compound `OCc1csc(-c2ccccc2)n1`, the melting point lay within 65 to 69 °C.

`COc1ccc([N+](=O)[O-])c(O)c1`: the melting point was 90 to 94 °C.

In turn, `O=C1C(=C2C=Cc3ccccc3N2)C(=O)c2ccccc21` gave a melting point of 240 to 241 °C.

Compound `O=c1c(Cc2c(O)oc3ccccc3c2=O)c(O)oc2ccccc12` yielded a melting point of 290 °C.

With `CN(C)C(=O)CCCOC(=O)c1ccccc1`, the melting point worked out at 40.5 °C.

The compound `O=S(=O)(Cl)c1cccc2ccccc12` gave a melting point of 68 °C.

The compound `O=C(c1ccccc1)C(c1ccccc1)c1cc(Cl)c([N+](=O)[O-])cc1[N+](=O)[O-]` (stereo unspecified) gave a melting point of 131 °C.

With `Cc1ccc(C#N)c(S(=O)(=O)Cl)c1`, the melting point is 71 to 73 °C.

Turning to `CC(C)C1CCCCC1`, the melting point was -89.4 °C.

Consider `Clc1cccc2cccc(Cl)c12`, for which the melting point was 89 °C.

On to `COc1ccc(-c2csc(/C(C#N)=C\c3ccco3)n2)cc1`, for which the melting point was 115 °C.

`O=C(c1cccs1)c1noc(-c2ccc(Br)cc2)c1S(=O)(=O)c1ccccc1` registered a melting point of 130 °C.

With `CCCCNC(=O)COC(=O)c1ccccc1`, the melting point was 69.5 °C.

On to `Cc1c([N+](=O)[O-])cc2c(c1[N+](=O)[O-])C(C)(C)CC2(C)C`, for which the melting point came to 132 °C.

`CC12COC(=O)CC1CCC1C2CCC2(C)C1CCC2(C)O` (stereo unspecified) registered a melting point of 236 °C.

As for `Nc1ccc(Sc2ccc([N+](=O)[O-])cc2)cc1`, the melting point was 144 °C.

`ON=C(c1ccccc1)c1ccc(Cl)cc1` yielded a melting point of 133 °C.

Take `O=C(O)c1ccccc1-n1cccc1`: the melting point was 104 °C.

The compound `O=C1NC(=O)C(=Cc2ccc(-c3ccccc3)o2)C(=O)N1` gave a melting point of 270 °C.

`Cc1cccnc1C(N)=S` displayed a melting point of 120 °C.

The compound `CC1(C)CC(=O)C2=C(C1)Nc1ccc3ccccc3c1C2c1ccc(F)cc1` (stereo unspecified) came in with a melting point of 204 °C.

With `CC12CCC3C(C(=O)CC4CC(O)CCC43C)C1CCC2=O` (stereo unspecified), the melting point lay within 199 to 200 °C.

Regarding `COc1ccc(C(N)=S)cc1[N+](=O)[O-]`, the melting point is 191 to 192 °C.

In the case of `COc1cc(CO)cc(Cl)c1O`, the melting point is 117 °C.

`COc1ccc(C(=O)c2ccc(OC)c(OC)c2)cc1` returned a melting point of 79 °C.

`BrC(=NNc1ccccc1)c1ccccc1` came in with a melting point of 190 °C.

Turning to `Nc1ccc(Br)c(F)c1`, the melting point was 68 °C.

Regarding `FC(F)(F)C(F)(F)C(F)(F)C(F)(F)OC(F)(F)C(F)(F)C(F)(F)C(F)(F)F`, the melting point is -100 °C.

For `Cc1cc(C(F)(F)F)c(C#N)c(=S)[nH]1`, the melting point came out at 200 °C.

With `COc1cc(C=CC(=O)O)cc(Br)c1O`, the melting point turned out to be 256 °C.

`CC1CC(=O)c2cc(Cl)ccc2S1` (stereo unspecified) registered a melting point of 64 to 65 °C.

Turning to `CN(CCOc1ccc(CC2SC(=O)NC2=O)cc1)c1ccccn1` (stereo unspecified), the melting point was 122 °C.

As for `N#C/C(=N/Nc1cccc(C(F)(F)F)c1)C(=O)c1cccs1`, the melting point was determined as 173 °C.

The compound `CSc1ccccc1C(=O)N(NC(=O)c1ccccc1)C(C)(C)C` had a melting point of 196 °C.

For the compound `Cc1ccc(C(C)C)c(O)c1C(=O)O`, the melting point was found to be 127 °C.

`O=Cc1ccc(O)c(OC(F)(F)F)c1` displayed a melting point of 78 °C.

Turning to `COC(=O)/C=C(/C(=O)OC)N(Nc1ccccc1N=Nc1ccccc1)c1ccccc1`, the melting point was 153 to 154 °C.

The compound `C=C(Br)c1ccccc1` registered a melting point of -44 °C.

As to `C#CC1(O)CCC2C3CCC4CC5(CCC4(C)C3CCC21C)OCCO5` (stereo unspecified), the melting point lay in the range of 197 to 199 °C.

`CC(=NO)c1ccccc1` gave a melting point of 60 °C.

As to `O=c1ccoc2ccccc12`, the melting point was 59 °C.

Compound `C=Cc1ccccc1CC` registered a melting point of -75.5 °C.

The compound `CC(=O)OC1CCC2(C)C3CCC4=C(CCC4(C)C#CCl)C3CCC2(C)C1` (stereo unspecified) came in with a melting point of 109 to 110 °C.

With `CC(C)C1(NC(=O)c2ccccc2)COCOC1=O` (racemic), the melting point lay in the range of 161 to 162 °C.

`CCOC(=O)/C(=N\Nc1ccccc1)C(=O)C(F)(F)F` had a melting point of 80 to 82 °C.

In general, melting point refers to the temperature, or range, at which the solid turns liquid.

Values taken from a melting point compilation (Tetko et al.).
